One test concerns the target T1, human 15-PGDH (Homo sapiens, UniProt P15428).
T1 construct: purchased R&D System 5660-DH
T1 sequence (P15428 1-266): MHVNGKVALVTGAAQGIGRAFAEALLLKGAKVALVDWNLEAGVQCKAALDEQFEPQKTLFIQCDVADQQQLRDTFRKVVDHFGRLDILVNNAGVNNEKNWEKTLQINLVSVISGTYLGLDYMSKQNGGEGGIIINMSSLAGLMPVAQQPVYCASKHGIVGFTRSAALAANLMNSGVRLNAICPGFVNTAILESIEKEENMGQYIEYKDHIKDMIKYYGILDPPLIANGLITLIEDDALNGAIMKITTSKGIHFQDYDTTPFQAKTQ
Briefly: Evaluation of 15-PGDH inhibitory activity (fluorescence enzyme assay, NAD+/PGE2). It counts as biochemical. Particulars: human 15-PGDH enzyme, fluorescence Vmax. How it is done: 15-PGDH inhibition activity of Example compounds was measured as follows. 6.7 ng of human 15-PGDH (R&D System# 5660-DH) enzyme (10 µL) was added to a black 96 well plate, 60 µL of buffer (50 mM Tris-HCl, pH 7.5, 0.01% Tween 20) was added, and 10 µL of 200 µM β-Nicotinamide adenine dinucleotide sodium salt (Sigma, Cat# N0632-5G) was added. 10 µL of (10x) compound solution in DMSO was added and reacted for 10 minutes at room temperature.

Another test has as its system A549 cells. Description: Measurement of PGE2-increasing activity in A549 cells (IL-1β stimulated, PGE2 quantified in supernatant). It counts as cell-based. Particulars: Homo sapiens, 24 h; concentration of 1 µM of each compound; IL-1β treated A549 cells; read-out: Increased PGE2 production in A549 cells. A digest of the protocol: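 PGE2 secreted into the supernatant was measured by immunoassay 24 h after treatment. Before treatment, A549 cells were cultured 24 h in 10% FBS F12K, washed, and placed in serum-free medium containing compound (DMSO 0.1% final) plus or minus IL-1β, incubated at 37 °C, 5% CO2.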

pIC50: −log10 of the molar value.

By pIC50 is commonly meant −log10 of the IC50, conventionally taken in molar units. A lower pIC50 goes with a high IC50.

Consider `O=C1CC(C(=O)Nc2cncc(-c3cccc4c(C(=O)N5CCCCC5)cnn34)c2)CCN1` (centres unmarked) [Example 198, 2-oxo-N-(5-(3-(piperidine-1-carbonyl)pyrazolo[1,5-a]pyridin-7-yl)pyridin-3-yl)piperidine-4-carboxamide], for which the pIC50 against human 15-PGDH was at least 7.00. The fold induction at 1 µM with A549 cells is over 1.5.
In turn, `Cc1nc(-c2ncc(-c3cccc4c(C(=O)N5CCCCC5)cnn34)cn2)no1` [Example 317, [7-[2-(5-methyl-1,2,4-oxadiazol-3-yl)pyrimidin-5-yl]pyrazolo[1,5-a]pyridin-3-yl]-(1-piperidyl)methanone] gave a pIC50 on human 15-PGDH of at least 7.00. Further, in the test with A549 cells, the fold induction at 1 µM was over 1.5.
For `COCCC(=O)Nc1ccc(-c2cccc3c(C(=O)N4CCCCC4)cnn23)cc1` [Example 98, 3-methoxy-N-(4-(3-(piperidine-1-carbonyl)pyrazolo[1,5-a]pyridin-7-yl)phenyl)propanamide] the same measures were at least 7.00 and over 1.5.
In the case of `CN1CCc2ccc(-c3cccc4c(C(=O)N5CCCCC5)cnn34)cc2C1=O` [Example 132, 2-methyl-7-(3-(piperidine-1-carbonyl)pyrazolo[1,5-a]pyridin-7-yl)-3,4-dihydroisoquinolin-1(2H)-one], the pIC50 against human 15-PGDH is at least 7.00. Moreover, the fold induction at 1 µM in the test on A549 cells was over 1.5.
For `N#CCCNC(=O)c1cncc(-c2cccc3c(C(=O)N4CCCCC4)cnn23)c1` [Example 51, N-(2-cyanoethyl)-5-(3-(piperidine-1-carbonyl)pyrazolo[1,5-a]pyridin-7-yl)nicotinamide] the same measures were at least 7.00 and over 1.5.
In the same order, the values of `O=C(NCc1ccon1)c1ccc(-c2cccc3c(C(=O)N4CCCCC4)cnn23)cc1` [Example 73, N-(isoxazol-3-ylmethyl)-4-(3-(piperidine-1-carbonyl)pyrazolo[1,5-a]pyridin-7-yl)benzamide] are at least 7.00 and over 1.5.
In the same order, the values of `CN1CCC(C(=O)Nc2ccc(-c3cccc4c(C(=O)N5CCCCC5)cnn34)cc2)CC1` [Example 99, 1-methyl-N-(4-(3-(piperidine-1-carbonyl)pyrazolo[1,5-a]pyridin-7-yl)phenyl)piperidine-4-carboxamide] are at least 7.00 and under 1.5.
At human 15-PGDH, `O=C(c1cnn2c(-c3ccc(-c4ccsc4)cc3)cccc12)N1CCCCC1` [Example 347, 1-piperidyl-[7-[4-(3-thienyl)phenyl]pyrazolo[1,5-a]pyridin-3-yl]methanone] gave a pIC50 of at least 7.00. For the same molecule, the fold induction at 1 µM in the test with A549 cells is under 1.5.
For `O=C1NCc2ccc(-c3cccc4c(C(=O)N5CCCC(C(F)(F)F)C5)cnn34)cc21` (centres unmarked) [Example 398, 6-(3-(3-(trifluoromethyl)piperidine-1-carbonyl)pyrazolo[1,5-a]pyridin-7-yl)isoindolin-1-one] the same measures were at least 7.00 and over 1.5.
For `O=C1NCc2ccc(-c3cccc4c(C(=O)N5CC6(C5)CC(F)(F)C6)cnn34)cc21` [Example 412, 6-(3-(6,6-difluoro-2-azaspiro[3.3]heptane-2-carbonyl)pyrazolo[1,5-a]pyridin-7-yl)isoindolin-1-one] the same measures were at least 7.00 and over 1.5.
In turn, `O=C(c1cncc(-c2cccc3c(C(=O)N4CCCCC4)cnn23)c1)N1CC2(CC(O)C2)C1` [Example 225, (6-hydroxy-2-azaspiro[3.3]heptan-2-yl)-[5-[3-(piperidine-1-carbonyl)pyrazolo[1,5-a]pyridin-7-yl]-3-pyridyl]methanone] had a negative logarithm of the IC50 (pIC50) at human 15-PGDH of at least 7.00. In addition, in the test on A549 cells, the fold induction at 1 µM was over 1.5.
For `O=C(Nc1ccc(-c2cccc3c(C(=O)N4CCCCC4)cnn23)cc1)c1cccnc1` [Example 101, N-(4-(3-(piperidine-1-carbonyl)pyrazolo[1,5-a]pyridin-7-yl)phenyl)nicotinamide] the same measures were at least 7.00 and over 1.5.
In the same order, the values of `Nc1noc2cc(-c3cccc4c(C(=O)N5CCCCC5)cnn34)ccc12` [Example 320, [7-(3-amino-1,2-benzoxazol-6-yl)pyrazolo[1,5-a]pyridin-3-yl]-(1-piperidyl)methanone] are at least 7.00 and over 1.5.
In the case of `COCCNC(=O)c1cncc(-c2cccc3c(C(=O)N4CCCCC4)cnn23)c1` [Example 45, N-(2-methoxyethyl)-5-(3-(piperidine-1-carbonyl)pyrazolo[1,5-a]pyridin-7-yl)nicotinamide], the pIC50 at human 15-PGDH is at least 7.00. Further, the fold induction at 1 µM in the test on A549 cells was over 1.5.
On human 15-PGDH, `N#Cc1ccc(-c2cccc3c(C(=O)N4CCCCC4)cnn23)cc1` [Example 15, 4-(3-(piperidine-1-carbonyl)pyrazolo[1,5-a]pyridin-7-yl)benzonitrile] showed a pIC50 of at least 7.00. In the test with A549 cells, the fold induction at 1 µM is over 1.5.
In the same order, the values of `CN1CCc2ncc(-c3cccc4c(C(=O)N5CCCCC5)cnn34)cc2C1=O` [Example 199, 6-methyl-3-(3-(piperidine-1-carbonyl)pyrazolo[1,5-a]pyridin-7-yl)-7,8-dihydro-1,6-naphthyridin-5(6H)-one] are at least 7.00 and over 1.5.
In the same order, the values of `Cc1nc(-c2ccc(-c3cccc4c(C(=O)N5CCCCC5)cnn34)cc2)cn1C` [Example 358] are at least 7.00 and over 1.5.
In the same order, the values of `COCCCNc1ccc(-c2cccc3c(C(=O)N4CCCCC4)cnn23)cn1` [Example 107, (7-(6-((3-methoxypropyl)amino)pyridin-3-yl)pyrazolo[1,5-a]pyridin-3-yl)(piperidin-1-yl)methanone] are at least 7.00 and over 1.5.
On human 15-PGDH, `O=C(c1cnn2c(-c3ccc(-c4n[nH]c(=O)o4)nc3)cccc12)N1CCCCC1` [Example 360, 5-[5-[3-(piperidine-1-carbonyl)pyrazolo[1,5-a]pyridin-7-yl]-2-pyridyl]-3H-1,3,4-oxadiazol-2-one] had a pIC50 of at least 7.00. For the same molecule, the fold induction at 1 µM in the test on A549 cells is over 1.5.
For `Cc1ncc(-c2cc(-c3cccc4c(C(=O)N5CCCCC5)cnn34)cc(N3CCOCC3)n2)cn1` [Example 377, (7-(2-(2-methylpyrimidin-5-yl)-6-morpholinopyridin-4-yl)pyrazolo[1,5-a]pyridin-3-yl)(piperidin-1-yl)methanone] the same measures were at least 7.00 and over 1.5.
In the same order, the values of `N#Cc1ncc(-c2cccc3c(C(=O)N4CCCCC4)cnn23)cn1` [Example 293, 5-[3-(piperidine-1-carbonyl)pyrazolo[1,5-a]pyridin-7-yl]pyrimidine-2-carbonitrile] are at least 7.00 and over 1.5.
In the same order, the values of `CNC(=O)c1ccc(-c2cccc3c(C(=O)N4CCCCC4)cnn23)cn1` [Example 75, N-methyl-5-(3-(piperidine-1-carbonyl)pyrazolo[1,5-a]pyridin-7-yl)picolinamide] are at least 7.00 and over 1.5.
`Cc1nc(-c2cc(F)cc(-c3cccc4c(C(=O)N5CCCCC5)cnn34)c2)no1` [Example 322, (7-(3-fluoro-5-(5-methyl-1,2,4-oxadiazol-3-yl)phenyl)pyrazolo[1,5-a]pyridin-3-yl)(piperidin-1-yl)methanone] showed a pIC50 against human 15-PGDH of at least 7.00. For the same molecule, the fold induction at 1 µM with A549 cells was over 1.5.
For `Cc1nc(-c2ccc(-c3cccc4c(C(=O)N5CCCCC5)cnn34)c(F)c2)no1` [Example 296, [7-[2-fluoro-4-(5-methyl-1,2,4-oxadiazol-3-yl)phenyl]pyrazolo[1,5-a]pyridin-3-yl]-(1-piperidyl)methanone] the same measures were at least 7.00 and over 1.5.
For `CN1CCN(c2ccc(-c3cccc4c(C(=O)N5CCCCC5)cnn34)cn2)CC1` [Example 111, (7-(6-(4-methylpiperazin-1-yl)pyridin-3-yl)pyrazolo[1,5-a]pyridin-3-yl)(piperidin-1-yl)methanone] the same measures were at least 7.00 and over 1.5.
In the same order, the values of `O=C(NCc1ccon1)c1ccc(-c2cccc3c(C(=O)N4CCCCC4)cnn23)cn1` [Example 89, N-(isoxazol-3-ylmethyl)-5-(3-(piperidine-1-carbonyl)pyrazolo[1,5-a]pyridin-7-yl)picolinamide] are at least 7.00 and over 1.5.
In turn, `CN1Cc2ccc(-c3cccc4c(C(=O)N5CCCCC5)cnn34)cc2C1=O` [Example 141, 2-methyl-6-(3-(piperidine-1-carbonyl)pyrazolo[1,5-a]pyridin-7-yl)isoindolin-1-one] had a pIC50 against human 15-PGDH of at least 7.00. In addition, the fold induction at 1 µM in the test with A549 cells is over 1.5.
For `O=C(COc1ccc(Cl)cc1)Nc1cncc(-c2cccc3c(C(=O)N4CCCCC4)cnn23)c1` [Example 406, 2-(4-chlorophenoxy)-N-(5-(3-(piperidine-1-carbonyl)pyrazolo[1,5-a]pyridin-7-yl)pyridin-3-yl)acetamide] the same measures were at least 7.00 and over 1.5.

The record behind these values is patent publication EP4653437A2 (Innovo Therapeutics Inc., priority 2023, dated 2024).
